Data published in ChEMBL document CHEMBL1201862, “PubChem BioAssay data set” (2004).
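Five compound concentrations were applied to cells in 96-well plates for 48 hours; endpoints were derived by simple linear interpolation of the resulting dose-response curve. GI50 is the concentration that inhibits growth by half.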 Active and inactive are the calls of the source. Cut-off read from the data, not from the text of the source: active = GI50 up to about 1.1 µM and inactive = higher.

Columns and labels:
Experiment in all cases: NCI anticancer screen, dose series, 48 h
786-0 = system: 786-0
A498 = system: A498
A549 = system: A549
ACHN = system: ACHN
BT-549 = system: BT-549
CAKI-1 = system: CAKI-1
CCRF-CEM = system: CCRF-CEM
COLO 205 = system: COLO 205
DU-145 = system: DU-145
EKVX = system: EKVX
HCC 2998 = system: HCC 2998
HCT-116 = system: HCT-116
HCT-15 = system: HCT-15
HL-60 = system: HL-60
HOP-62 = system: HOP-62
HOP-92 = system: HOP-92
HT-29 = system: HT-29
Hs-578T = system: Hs-578T
IGROV-1 = system: IGROV-1
K562 = system: K562
KM12 = system: KM12
LOX IMVI = system: LOX IMVI
M14 = system: M14
MCF7 = system: MCF7
MDA-MB-231 = system: MDA-MB-231
MDA-MB-435 = system: MDA-MB-435
MDA-N = system: MDA-N
MOLT-4 = system: MOLT-4
Malme-3M = system: Malme-3M
NCI-H226 = system: NCI-H226
NCI-H23 = system: NCI-H23
NCI-H460 = system: NCI-H460
NCI-H522 = system: NCI-H522
NCI/ADR-RES = system: NCI/ADR-RES
OVCAR-3 = system: OVCAR-3
OVCAR-4 = system: OVCAR-4
OVCAR-5 = system: OVCAR-5
OVCAR-8 = system: OVCAR-8
PC-3 = system: PC-3
RPMI-8226 = system: RPMI-8226
RXF 393 = system: RXF 393
SF-268 = system: SF-268
SF-295 = system: SF-295
SF-539 = system: SF-539
SK-MEL-28 = system: SK-MEL-28
SK-MEL-2 = system: SK-MEL-2
SK-MEL-5 = system: SK-MEL-5
SK-OV-3 = system: SK-OV-3
SN12C = system: SN12C
SNB-19 = system: SNB-19
SNB-75 = system: SNB-75
SR = system: SR
SW-620 = system: SW-620
T47D = system: T47D
TK-10 = system: TK-10
U-251 = system: U-251
UACC-257 = system: UACC-257
UACC-62 = system: UACC-62
UO-31 = system: UO-31

## COc1ccc(/N=c2\ssc(C(=S)Nc3ccc(OC)cc3)c2S)cc1
786-0
  GI50: > 100 µM (inactive)
A498
  GI50: > 100 µM (inactive)
A549
  GI50: 83.6 µM (inactive)
ACHN
  GI50: > 100 µM (inactive)
BT-549
  GI50: > 100 µM (inactive)
CAKI-1
  GI50: > 100 µM (inactive)
CCRF-CEM
  GI50: 31.6 µM (inactive)
COLO 205
  GI50: > 100 µM (inactive)
DU-145
  GI50: > 100 µM (inactive)
EKVX
  GI50: > 100 µM (inactive)
HCC 2998
  GI50: 32.4 µM (inactive)
HCT-116
  GI50: 88.1 µM (inactive)
HCT-15
  GI50: 64.9 µM
HL-60
  GI50: 36.3 µM (inactive)
HOP-62
  GI50: > 100 µM (inactive)
HOP-92
  GI50: > 100 µM (inactive)
HT-29
  GI50: > 100 µM (inactive)
Hs-578T
  GI50: > 100 µM (inactive)
IGROV-1
  GI50: > 100 µM (inactive)
K562
  GI50: 37.7 µM (inactive)
KM12
  GI50: > 100 µM (inactive)
LOX IMVI
  GI50: > 100 µM (inactive)
M14
  GI50: 71 µM (inactive)
MCF7
  GI50: 69 µM (inactive)
MDA-MB-231
  GI50: > 100 µM (inactive)
MDA-MB-435
  GI50: > 100 µM (inactive)
MDA-N
  GI50: > 100 µM (inactive)
MOLT-4
  GI50: > 100 µM (inactive)
Malme-3M
  GI50: > 100 µM (inactive)
NCI-H226
  GI50: > 100 µM (inactive)
NCI-H23
  GI50: > 100 µM (inactive)
NCI-H460
  GI50: 39.6 µM (inactive)
NCI-H522
  GI50: > 100 µM (inactive)
NCI/ADR-RES
  GI50: > 100 µM (inactive)
OVCAR-3
  GI50: > 100 µM (inactive)
OVCAR-4
  GI50: > 100 µM (inactive)
OVCAR-5
  GI50: > 100 µM (inactive)
OVCAR-8
  GI50: 97.5 µM (inactive)
PC-3
  GI50: > 100 µM (inactive)
RPMI-8226
  GI50: > 100 µM (inactive)
RXF 393
  GI50: > 100 µM (inactive)
SF-268
  GI50: > 100 µM (inactive)
SF-295
  GI50: > 100 µM (inactive)
SF-539
  GI50: > 100 µM (inactive)
SK-MEL-28
  GI50: 6.68 µM (inactive)
SK-MEL-2
  GI50: > 100 µM (inactive)
SK-MEL-5
  GI50: > 100 µM (inactive)
SK-OV-3
  GI50: > 100 µM (inactive)
SN12C
  GI50: > 100 µM (inactive)
SNB-19
  GI50: > 100 µM (inactive)
SNB-75
  GI50: > 100 µM (inactive)
SR
  GI50: > 100 µM (inactive)
SW-620
  GI50: > 100 µM (inactive)
T47D
  GI50: > 100 µM (inactive)
TK-10
  GI50: > 100 µM (inactive)
U-251
  GI50: 75.7 µM (inactive)
UACC-257
  GI50: > 100 µM (inactive)
UACC-62
  GI50: > 100 µM (inactive)
UO-31
  GI50: > 100 µM (inactive)
